# Reference: patent US9890147B2 (BAYER PHARMA AKTIENGESELLSCHAFT, priority 2012, dated 2018)
# Biological target: T1, BRD4 (BD1) (Homo sapiens, UniProt O60885)
# T1 construct: with relatively long constructs also being possible, preferably amino acids 44-168; made in house; host or cells: E. coli
# Experiment: Binding assay BRD4/acetylated peptide H4 (TR-FRET protein-protein interaction assay)
# From the text: Binding Assay BRD4/Acetylated Peptide H4 (“PRO”)
# To assess the BRD4 binding of the substances described in the present application, their ability to inhibit the interaction between BRD4 (BD1) and acetylated histone H4 in a dose-dependent manner was quantified (Filippakopoulos et al., Cell, 2012, 149: 214-231).
# For this purpose, use was made of a time-resolved fluorescence resonance energy transfer (TR-FRET) assay which measured binding between N-terminally His6-tagged BRD4 (BD1) (amino acids 67-152, with relatively long constructs also being possible, preferably amino acids 44-168) and a synthetic acetylated histone H4 (Ac—H4) peptide having the sequence GRGK(Ac)GGK(Ac)GLGK(Ac)GGAK(Ac)RHGSGSK-biotin. The recombinant BRD4 protein-produced according to Filippakopoulos et al., Cell, 2012, 149: 214-231—was expressed in E. coli and purified by (Ni-NTA) affinity and (Sephadex G-75) size exclusion chromatography. The Ac—H4 peptide is commercially available, for example from Biosyntan (Berlin, Germany). In a typical assay, 11 different concentrations of each substance (0.1 nM, 0.33 nM, 1.1 nM, 3.8 nM, 13 nM, 44 nM, 0.15 μM, 0.51 μM, 1.7 μM, 5.9 μM and 20 μM) were measured in duplicate on the same microtitre plate. To this end, 100-fold concentrated solutions in DMSO were prepared by serial dilution (1:3.4) of a 2 mM stock solution in a clear 384-well microtitre platte (Greiner Bio-One, Frickenhausen, Germany) 50 nl of these were transferred into a black test plate (Greiner Bio-One, Frickenhausen, Germany). The test was started by addition of 2 μl of a 2.5-fold concentrated BRD4 solution (final concentration usually 10 nM in the […] of the reaction volume) in aqueous assay buffer [50 mM HEPES pH 7.5. 50 mM sodium chloride (NaCl), 0.25 mM CHAPS and 0.05% serum albumin (BSA)] to the substances in the test plate. This was followed by a 10-minute incubation step at 22° C. to pre-equilibrate putative complexes between BRD4 and the substances.
# The mixture was then incubated in the dark for one hour at 22° C. and then for at least 3 hours and at most overnight at 4° C. Formation of BRD4/Ac—H4 complexes was determined by measuring the resonance energy transfer from the streptavidin-Eu cryptate to the anti-6His-XL665 antibody in the reaction. To this end, the fluorescence emission was measured at 620 nm and 665 nm after excitation at 330-350 nm in a TR-FRET measuring device, for example a Rubystar or Pherastar (both from BMG Lab Technologies, Offenburg, Germany) or a Viewlux (Perkin-Elmer). The ratio of the emission at 665 nm and at […] was used as an indicator for the amount of BRD4/Ac—H4 complexes formed.
# The data obtained (ratios) were normalized, with 0% inhibition corresponding to the mean of the measured values of a set of controls (usually 32 data points) comprising all reagents. Here, 50 nl of DMSO (100%) were used instead of test substances. An inhibition of 100% corresponded to the mean of the measured values of a set of controls (usually 32 data points) comprising all reagents except for BRD4. The IC50 was determined by regression analysis based on a 4-parameter equation (minimum, maximum, IC50, Hill; Y=Max+(Min−Max)/(1+(X/IC 50)^Hill)).
row,Structure (SMILES),IC50
1,"CNC(=O)N1N=C(c2ccc(N3CCC(=O)CC3)cc2)c2cc(OC)c(OC)cc2CC1C (racemic) [Example 196, (±)-7,8-dimethoxy-N,4-dimethyl-1-[4-(4-oxopiperidin-1-yl)phenyl]-4,5-dihydro-3H-2,3-benzodiazepine-3-carboxamide]",90 nM
2,"CNC(=O)N1N=C(c2ccc(N3CCN(C)CC3)cc2)c2cc(O)c(O)cc2CC1C (racemic) [Example 199, (±)-7,8-Dihydroxy-N,4-dimethyl-1-[4-(4-methylpiperazin-1-yl)phenyl]-4,5-dihydro-3H-2,3-benzodiazepine-3-carboxamide]",1020 nM
3,"CCC1Cc2cc(OC)c(OC)cc2C(c2ccc(N3CCN(C)CC3)cc2)=NN1C(=O)NC (racemic) [Example 201, (±)-4-ethyl-7,8-dimethoxy-N-methyl-1-[4-(4-methylpiperazin-1-yl)phenyl]-4,5-dihydro-3H-2,3-benzodiazepine-3-carboxamide]",1370 nM
4,"CCC1Cc2cc(OC)c(OC)cc2C(c2ccc(N3CC(F)C3)cc2)=NN1C(=O)NC (racemic) [Example 204, (±)-4-ethyl-1-[4-(3-fluoroazetidin-1-yl)phenyl]-7,8-dimethoxy-N-methyl-4,5-dihydro-3H-2,3-benzodiazepine-3-carboxamide]",1220 nM
5,"CCC1Cc2cc(OC)c(OC)cc2C(c2ccc(N3CCN(C(C)=O)CC3)cc2)=NN1C(=O)NC (racemic) [Example 205, (±)-1-[4-(4-acetylpiperazin-1-yl)phenyl]-4-ethyl-7,8-dimethoxy-N-methyl-4,5-dihydro-3H-2,3-benzodiazepine-3-carboxamide]",1080 nM
6,"CCC1Cc2cc(OC)c(OC)cc2C(c2ccc(N3CCC(O)CC3)cc2)=NN1C(=O)NC (racemic) [Example 207, (±)-4-ethyl-1-[4-(4-hydroxypiperidin-1-yl)phenyl]-7,8-dimethoxy-N-methyl-4,5-dihydro-3H-2,3-benzodiazepine-3-carboxamide]",1220 nM
7,"CCC1Cc2cc(OC)c(OC)cc2C(c2ccc(N3CCOCC3)cc2)=NN1C(=O)NC (racemic) [Example 208, (±)-4-ethyl-7,8-dimethoxy-N-methyl-1-[4-(morpholin-4-yl)phenyl]-4,5-dihydro-3H-2,3-benzodiazepine-3-carboxamide]",1100 nM
8,"CNC(=O)N1N=C(c2ccc(N3CCNCC3)cc2)c2cc(Cl)c(OC(F)(F)F)cc2CC1C (racemic) [Example 211, (±)-8-chloro-N,4-dimethyl-1-[4-(piperazin-1-yl)phenyl]-7-(trifluoromethoxy)-4,5-dihydro-3H-2,3-benzodiazepine-3-carboxamide]",300 nM
9,"CNC(=O)N1N=C(c2ccc(N3CCN(S(C)(=O)=O)CC3)cc2)c2cc(Cl)c(OC(F)(F)F)cc2CC1C (racemic) [Example 214, (±)-8-chloro-N,4-dimethyl-1-{4-[4-(methylsulphonyl)piperazin-1-yl]phenyl}-7-(trifluoromethoxy)-4,5-dihydro-3H-2,3-benzodiazepine-3-carboxamide]",1230 nM
10,"CCC1Cc2cc(OC)c(OC)cc2C(c2ccc(-c3c(C)noc3C)cc2)=NN1C(=O)NC (racemic) [Example 223, (±)-1-[4-(3,5-dimethyl-1,2-oxazol-4-yl)phenyl]-4-ethyl-7,8-dimethoxy-N-methyl-4,5-dihydro-3H-2,3-benzodiazepine-3-carboxamide]",320 nM
11,"CCC1Cc2cc(OC)c(OC)cc2C(c2ccc(N3CCCC3=O)cc2)=NN1C(=O)NC (racemic) [Example 225, (±)-4-ethyl-7,8-dimethoxy-N-methyl-1-[4-(2-oxopyrrolidin-1-yl)phenyl]-4,5-dihydro-3H-2,3-benzodiazepine-3-carboxamide]",1720 nM

# Next, values leading:
row,IC50,Structure (SMILES)
1,910 nM,"CNC(=O)N1N=C(c2ccc(-c3ccccc3C(=O)O)cc2)c2cc(OC)c(OC)cc2CC1C (racemic) [Example 6, (±)-4′-{7,8-dimethoxy-4-methyl-3-[(methylamino)carbonyl]-4,5-dihydro-3H-2,3-benzodiazepin-1-yl}biphenyl-2-carboxylic acid]"
2,40 nM,"CNC(=O)N1N=C(c2ccc(N3CCC(CCO)CC3)cc2)c2cc(OC)c(OC)cc2CC1C (racemic) [Example 183, (±)-1-{4-[4-(2-hydroxyethyl)piperidin-1-yl]phenyl}-7,8-dimcthoxy-N,4-dimethyl-4,5-dihydro-3H-2,3-benzodiazepine-3-carboxamide]"
3,80 nM,"CNC(=O)N1N=C(c2ccc(N3CCN(CC(F)(F)F)CC3)cc2)c2cc(OC)c(OC)cc2CC1C (racemic) [Example 197, (±)-7,8-dimethoxy-N,4-dimethyl-1-{4-[4-(2,2,2-trifluoroethyl)piperazin-1-yl]phenyl}-4,5-dihydro-3H-2,3-benzodiazepine-3-carboxamide]"
4,1230 nM,"CCC1Cc2cc(OC)c(OC)cc2C(c2ccc(N3CCNCC3)cc2)=NN1C(=O)NC (racemic) [Example 202, (±)-4-ethyl-7,8-dimethoxy-N-methyl-1-[4-(piperazin-1-yl)phenyl]-4,5-dihydro-3H-2,3-benzodiazepine-3-carboxamide]"
5,930 nM,"CCC1Cc2cc(OC)c(OC)cc2C(c2ccc(N3CCS(=O)(=O)CC3)cc2)=NN1C(=O)NC (racemic) [Example 206, (±)-1-[4-(1,1-dioxidothiomorpholin-4-yl)phenyl]-4-ethyl-7,8-dimethoxy-N-methyl-4,5-dihydro-3H-2,3-benzodiazepine-3-carboxamide]"
6,1730 nM,"CNC(=O)N1N=C(c2ccc(N3CCN(C(C)=O)CC3)cc2)c2ccc(OC(F)(F)F)cc2CC1C (racemic) [Example 217, (±)-1-[4-(4-acetylpiperazin-1-yl)phenyl]-N,4-dimethyl-7-(trifluoromethoxy)-4,5-dihydro-3H-2,3-benzodiazepine-3-carboxamide]"
7,1980 nM,"CCC1Cc2cc(OC)c(OC)cc2C(c2ccc(-c3ccc(F)cc3)cc2)=NN1C(=O)NC (racemic) [Example 221, (±)-4-ethyl-1-(4′-fluorobiphenyl-4-yl)-7,8-dimethoxy-N-methyl-4,5-dihydro-3H-2,3-benzodiazepine-3-carboxamide]"
8,7690 nM,"CNC(=O)N1N=C(c2ccc(-c3c(C)nn(C)c3C)cc2)c2cc(OC)c(OC)cc2CC1C(C)C (racemic) [Example 224, (±)-4-isopropyl-7,8-dimethoxy-N-methyl-1-[4-(1,3,5-trimethyl-1H-pyrazol-4-yl)phenyl]-4,5-dihydro-3H-2,3-benzodiazepine-3-carboxamide]"
9,8760 nM,"CCC1Cc2cc(OC)c(OC)cc2C(c2ccc(N3CCOCC3=O)cc2)=NN1C(=O)NC (racemic) [Example 226, (±)-4-ethyl-7,8-dimethoxy-N-methyl-1-[4-(3-oxomorpholin-4-yl)phenyl]-4,5-dihydro-3H-2,3-benzodiazepine-3-carboxamide]"
10,6280 nM,"CCC1Cc2cc(OC)c(OC)cc2C(c2ccc(N3CCCCC3=O)cc2)=NN1C(=O)NC (racemic) [Example 227, (±)-4-ethyl-7,8-dimethoxy-N-methyl-1-[4-(2-oxopiperidin-1-yl)phenyl]-4,5-dihydro-3H-2,3-benzodiazepine-3-carboxamide]"
11,1690 nM,"CCC1Cc2cc(OC)c(OC)cc2C(c2ccc(N3CCOC3=O)cc2)=NN1C(=O)NC (racemic) [Example 228, (±)-4-ethyl-7,8-dimethoxy-N-methyl-1-[4-(2-oxo-1,3-oxazolidin-3-yl)phenyl]-4,5-dihydro-3H-2,3-benzodiazepine-3-carboxamide]"
